In patent US20250367235A1, “SYSTEMS AND METHODS FOR MODULATING A CELL PHENOTYPE” (XCELL BIOSCIENCES, INC., priority 2019, published 2025):

Test system: PC-3, a prostate cancer cell line
Assay: PBMC tumor cell killing co-culture with anti-PD-1 antibodies, cell viability by CellTiter Glo
Format: cell-based, human
Details: 1% O2, 2 PSI above ambient pressure vs ambient conditions; antibody 10 ug/ml; PBMCs with PC-3 at effector to target ratio 20:1; 5 days; average of 21 PBMC isolates; FIG. 2
Protocol: PBMCs were isolated from 21 healthy volunteers. The PBMCs were cultured together with target tumor cells, (PC-3, a prostate cancer cell line), at an effector to target ratio of 20:1. All cells were cultured in RPMI1640 medium supplemented with 10% fetal bovine serum over a 5 day period. PBMCs were not activated with IL-2. Cell viability was measured at the end of the 5 day period by CellTiter Glo Assay (Promega) with 3 or 4 technical replicates. Each of the 21 PBMC isolates, and target cells, was cultured under either ambient conditions, or hypoxic and hyperbaric conditions (1% O2, 2 PSI above ambient pressure), and with or without anti-PD-1 antibodies. The anti-PD-1 antibodies used were Nivolumab and Pembrolizumab (10 ug/ml). Average results across the 21 different PBMC isolates are shown in FIG. 2, with error bars representing the standard error of the mean, and p values were calculated using paired Student's t tests.

| Substance | effect of hypoxic and hyperbaric conditions on efficacy of treatment at activating PBMCs to kill tumor cells |
| --- | --- |
| Pembrolizumab | more efficient at activating PBMCs to kill tumor cells |
| Nivolumab | did not have a noticeable effect |
